{
  "source": "patent US20200368247A1",
  "about": "“CENICRIVIROC FOR THE TREATMENT OF FIBROSIS” (Tobira Therapeutics, Inc., priority 2014, published 2020)",
  "key": {"[1]": {"tested_on": "NASH mice", "assay": "STAM mouse model of NASH, anti-HCC effects, week 18", "conditions": "for Body weight / Maximum diameter of visible tumor nodules (mm) / mice with GS-positive nodules / mice with HCC lesions (HE staining): week 18; for mice that died (survival analysis): 6 to 18 weeks", "experimental": "Group 1-Vehicle: Eighteen NASH mice were orally administered vehicle at a volume of 10 mL/kg twice daily (9:00 and 19:00) from 6 weeks of age."}, "[2]": {"molecular_target": "T1, CCR2 (Homo sapiens, UniProt P41597)", "T1 construct": "endogenous in cells; host or cells: monocytes within PBMCs from HIV+ and HIV- subjects", "T1 sequence (P41597 1-360 isoform P41597-2)": "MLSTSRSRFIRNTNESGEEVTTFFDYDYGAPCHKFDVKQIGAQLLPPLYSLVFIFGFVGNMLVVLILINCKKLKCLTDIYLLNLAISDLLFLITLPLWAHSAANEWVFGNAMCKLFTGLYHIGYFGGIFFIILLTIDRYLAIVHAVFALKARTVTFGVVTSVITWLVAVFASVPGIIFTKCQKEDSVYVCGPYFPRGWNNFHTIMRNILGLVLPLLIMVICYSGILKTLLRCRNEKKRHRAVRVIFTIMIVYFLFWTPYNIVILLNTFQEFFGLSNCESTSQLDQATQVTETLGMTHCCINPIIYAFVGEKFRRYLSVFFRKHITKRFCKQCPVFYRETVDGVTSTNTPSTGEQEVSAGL", "assay": "CCR2 receptor occupancy / MCP-1-induced CCR2 internalization in PBMCs, flow cytometry", "format": "cell-based", "experimental": "The capacity of each drug to inhibit CCR5 or CCR2 internalization was evaluated. Cell-surface expression of CCR5 and CCR2 was assessed by flow cytometry, and fluorescence values were converted into molecules of equivalent soluble fluorescence (MESF)."}, "[3]": {"tested_on": "male CD-1 mice with unilateral ureter occlusion", "assay": "Mouse UUO model of renal fibrosis", "format": "in vivo", "experimental": "Test animals were allocated to weight-matched treatment groups on the day prior to the surgical procedure (Day −1). Male CD-1 mice (N=51; age, 7-8 weeks) underwent either sham surgery or total ligation of the right ureter, i.e. UUO, via aseptic laparotomy (FIG. 12). […] Another group received the anti-transforming growth factor TGF-β1 antibody, compound 1D11 (positive control) at 3 mg/kg/day from Days −1 to 4, injected intraperitoneally once daily, and vehicle control from Days 0 to 5. […] On Day 5, animals were anaesthetised, blood and tissues were collected prior to sacrifice.\nStudy endpoints included: a) body and kidney weights; b) fibrosis in obstructed kidney evaluated via histological quantitative image analysis of picrosirius red staining (ten images/depth/kidney obtained and assessed in a blinded fashion using light microscopy [at 200×] to enable sampling of 60-70% of the renal cortical area) and quantified by a composite Collagen Volume Fraction (CVF [% total area imaged]) score expressed as the average positive stain across three anatomically distinct ([…] apart) tissue sections, or depths, from the obstructed kidney; c) hydroxyproline content of frozen renal cortical tissue biopsies as assessed by biochemical analyses; d) mRNA expression of profibrotic and inflammatory biomarkers (including MCP-1, Collagen 1a1, Collagen 3a1, TGF-β1, Fibronectin-1, α-smooth muscle actin (α-SMA) and connective tissue growth factor-1 (CTGF-1); assessed via Luminex® (Life Technologies™, Carlsbad, Calif., USA) assay with relative expression normalised to HPRT (hypoxanthine phosphoribosyltransferase).\nData are expressed as mean±standard error of mean (SEM). Statistical analyses were performed using GraphPad Prism® (GraphPad Software, Inc., San Diego, Calif., USA). Treatment differences between sham-surgery+vehiclecontrol and UUO+vehicle-control groups, and between UUO+vehicle-control and UUO+compound-1D11 (positive control) groups, were analysed by unpaired t-Test. Treatment differences between UUO+vehicle-control and CVC-dose groups were analysed by one-way ANOVA (analysis of variance) with Dunnett's test (post-hoc)."}, "[4]": {"tested_on": "HIV-1", "assay": "Study 201 drug resistance testing", "format": "in vivo, human", "conditions": "Baseline, Day 7, Day 40; subjects with evaluable samples", "experimental": "In Study 201, drug resistance testing was performed at Baseline, Day 7, and Day 40 (or at the “Early Termination” visit, if applicable)."}, "[5]": {"conditions": "CVC-high 100 mg/kg/day, listed as Cenicriviroc"}, "[6]": {"conditions": "CVC-low 20 mg/kg/day, listed as Cenicriviroc"}, "[7]": {"conditions": "CVC 7 and 20 mg/kg/day, compound 1D11"}},
  "data": [
    {"smiles": "CCCCOCCOc1ccc(-c2ccc3c(c2)/C=C(/C(=O)Nc2ccc([S@@+]([O-])Cc4cncn4CCC)cc2)CCCN3CC(C)C)cc1", "note": "[CVC, (S)-8-[4-(2-Butoxyethoxy)phenyl]-1-isobutyl-N-(4-{[(1-propyl-1H-imidazol-5-yl)methyl]sulfinyl}phenyl)-1,2,3,4-tetrahydro-1-benzazocine-5-carboxamide]", "values": [
      {"measurement": "Body weight", "setting": "[1]; CVC-high 100 mg/kg/day", "result": "20.8 ± 2.7", "unit": "g"},
      {"measurement": "Maximum diameter of visible tumor nodules (mm)", "setting": "[1]; CVC-high 100 mg/kg/day", "result": "5.3±5.1", "unit": "mm"},
      {"measurement": "Body weight", "setting": "[1]; [5]", "result": "20.8 ± 2.7", "unit": "g"},
      {"measurement": "Maximum diameter of visible tumor nodules (mm)", "setting": "[1]; [5]", "result": "5.3 ± 5.1", "unit": "mm"},
      {"measurement": "mice that died (survival analysis)", "setting": "[1]; CVC-high", "result": "Five out of twelve"},
      {"measurement": "mice with GS-positive nodules", "setting": "[1]; CVC-high", "result": "seven out of seven"},
      {"measurement": "mice with HCC lesions (HE staining)", "setting": "[1]; CVC-high", "result": "six out of seven"},
      {"measurement": "Body weight", "setting": "[1]; CVC-low 20 mg/kg/day", "result": "22.9 ± 3.5", "unit": "g"},
      {"measurement": "Maximum diameter of visible tumor nodules (mm)", "setting": "[1]; CVC-low 20 mg/kg/day", "result": "4.8±5.4", "unit": "mm"},
      {"measurement": "Body weight", "setting": "[1]; [6]", "result": "22.9 ± 3.5", "unit": "g"},
      {"measurement": "Maximum diameter of visible tumor nodules (mm)", "setting": "[1]; [6]", "result": "4.8 ± 5.4", "unit": "mm"},
      {"measurement": "mice that died (survival analysis)", "setting": "[1]; CVC-low", "result": "Six out of twelve"},
      {"measurement": "mice with GS-positive nodules", "setting": "[1]; CVC-low", "result": "five out of six"},
      {"measurement": "mice with HCC lesions (HE staining)", "setting": "[1]; CVC-low", "result": "five out of six"},
      {"measurement": "concentration required to reach >80% receptor occupancy", "setting": "[2]; CCR2, average", "result": 1.8, "unit": "nM"},
      {"measurement": "prevention of MCP-1-induced CCR2 internalization", "setting": "[2]; PBMCs", "result": "at lower concentrations than BMS-22"},
      {"measurement": "CCR2 cell-surface expression", "setting": "[2]; in the absence of MCP-1, monocytes", "result": "decreased cell-surface expression on monocytes"},
      {"measurement": "effect on body weight", "setting": "[3]; CVC 7 mg/kg/day, compound 1D11 3 mg/kg/day, Day 5", "result": "no effect on body weight"},
      {"measurement": "tolerability in UUO mice", "setting": "[3]; CVC 100 mg/kg/day", "result": "terminated early due to moribundity"},
      {"measurement": "effect on obstructed kidney hydroxyproline content", "setting": "[3]; CVC 7 and 20 mg/kg/day", "result": "Neither dose of CVC tested affected UUO-induced increases"},
      {"measurement": "Collagen 1a1, Collagen 3a1, TGF-β1 and Fibronectin-1 mRNA expression vs UUO+vehicle-control", "setting": "[3]; [7]", "result": "did not reach statistical significance"},
      {"measurement": "MCP-1, α-SMA and CTGF-1 mRNA expression vs UUO+vehicle-control", "setting": "[3]; [7]", "result": "did not have significant effects"},
      {"measurement": "drug susceptibility of virus", "setting": "[4]", "result": "fully susceptible"}
    ]}
  ]
}
